The test system of data set [1] is HT-29 SF cells. The data set is described as follows: Reversal of DHEA effect on cell cycle. Type of data set: cell-based, human. Particulars: supplement with 25 μM DHEA.
The test system of data set [2] is HT-29 SF cells. Briefly: DHEA effect on cell growth (Coulter counter). Conditions: 12.5-200 μM, 24-72 hours.
Description: Cell cultures, HT-29 SF cells, which represent a subline of HY-29 cells (ATCC, Rockville, Md.) and are adapted for growth in completely defined serum-free PC-1 medium (Ventrex, Portland, Me.), were obtained. Stock cultures were maintained in this medium at 37° C. (in a humidified atmosphere containing 5% CO2).
For data set [3], the system named is HT-29 SF cells. The data set is described as follows: DHEA effect on cell cycle distribution (flow cytometry). Type of data set: cell-based, human. Particulars: 25, 50 or 200 μM, 24-72 hours, time- and dose-dependent. The protocol: Cultures were trypsinized following 0, 24, 48, or 74 hours and fixed and stained using a modification of a procedure of Bauer et al., Cancer Res. 46, 3173-3178 (1986). Briefly, cells were collected by centrifugation and resuspended in cold phosphate-buffered saline. Cells were fixed in 70% ethanol, washed, and resuspended in phosphate-buffered saline.
After 24, 48, and 72 hours, cells were harvested, fixed in ethanol, and stained with propidium iodide, and the DNA content/cell was determined by flow cytometric analysis. The percentage of cells in G1, S, and G2M phases was calculated using the Cellfit cell cycle analysis program. S phase is marked by a quadrangle for clarity. Representative histograms from duplicate determinations are shown. The experiment was repeated three times.
On the technique in general: In flow cytometry, cells or beads pass a laser one at a time.

A short description of data set [4]: Solubility of DHEA-S as a function of NaCl and temperature. Type of data set: physicochemical. Particulars: for Equilibrium constant Ksp=[DHEA-S−][Na+]: slope of solubility vs reciprocal sodium concentration. The text has this:
Inhalation of pure water can produce a cough stimulus. […] The temperature effect is weaker at high NaCl concentrations.

Data set [5] in a line: HPLC check of drug degradation during jet milling. Type of data set: physicochemical. Particulars: HPLC peak area vs unmilled standard, single- and double-pass. As for the experimental part: The chromatographic peak area for the HPLC assay of the unmilled drug standard solution (10 mg/ml) gave a value of 23,427. […] The chromatographic peak areas for vials A and B were 11,979 and 11,677, respectively.

The test system of data set [6] is rat peritoneal mast cells. The data set is described as follows: Histamine secretion after stimulation with compound 48/80. Type of data set: cell-based. As for the experimental part: Freshly isolated rat peritoneal mast cells (2×10^5 cells) were pre-incubated for 5 min at 37° C. in a Balanced Salt Solution containing 150 mM NaCl ([…]), 2.7 mM KCl, 0.9 mM CaCl2, 4 mM Na2HPO4, 2.7 mM KH2PO4, 1.75 mg/ml BSA and 0.1 μg/ml compound 48/80. Thereafter, DHEAS or water (control) are added and the mixture is incubated for 2 min at 37° C.
Following incubation, the mixture is cooled to 4° C. then centrifuged at 4500 rpm for 5 min The supernatant is collected and mixed for 30 min at 4° C. with 5% TCA (trichloroacetic acid) to cause protein precipitation. After centrifugation at 9500×g for 15 min, the supernatant is collected and mixed with 0.25 M HCl. Thereafter, the samples are mixed with 2M NaOH and 0.2% OPT (ortho-phtalaldehyde) and incubated for 30 min at 4° C. in darkness, after which time the reaction is stopped by addition of 0.5 M H2SO4.

Data set [7] relates to Intracellular adenosine in rat heart, liver, lung and brain. Briefly: In vivo effect on adenosine levels in rat tissues. The text has this:
Hearts were removed from animals and flash frozen in liquid nitrogen with 10 s of death. Liver and lungs were removed en bloc and flash frozen with 30 s of death. Brain tissue was subsequently dissected.

Where “and” joins values, the source holds several entries; their conditions need not be identical. Equal entries are not always repeated.

By EC50 is commonly meant the concentration giving half of the maximal effect.

`CC(C)CCC[C@@H](C)[C@H]1CC[C@H]2[C@@H]3CC=C4C[C@@H](O)CC[C@]4(C)[C@H]3CC[C@]12C` [CH, cholesterol]: the results for the “Prevention of DHEA-induced reduction of cells in S phase” value in data set [1] (48 hours) and in data set [1] (72 hours) were “very little effect” and “no effect”, respectively.

For `C[C@@](O)(CCO)CC(=O)O` [MVA, mevalonic acid], the “Prevention of DHEA-induced reduction of cells in S phase” value was “partially prevented” in data set [1] (48 hours) and “not after 72 hours” in data set [1] (72 hours).

For `C[C@]12CC[C@H](O)CC1=CC[C@@H]1[C@@H]2CC[C@]2(C)C(=O)CC[C@@H]12` [DHEA, 3β-hydroxyandrost-5-en-17-one], the “Effect on cell growth” value in data set [2] was “time- and dose-dependent inhibition of growth”. Further, in data set [3], the “Effect on cell cycle” value was “G1 block”.

Turning to `C[C@]12CC[C@H](OS(=O)(=O)[O-])CC1=CC[C@@H]1[C@@H]2CC[C@]2(C)C(=O)CC[C@@H]12.[Na+]` [DHEA-S, sodium dehydroepiandrostenone sulfate], the “Estimated DHEA-S concentration in solution” value in data set [4] (15° C., 20 mM Na+, Ksp 1316 mM^2, quadratic formula) was 27.5 mM and 10.7 mg/mL. The “Ksp at 15° C.” value in data set [4] (interpolated versus reciprocal of absolute temperature) is listed as roughly 1316 mM^2. The “Equilibrium constant Ksp=[DHEA-S−][Na+]” value in data set [4] (refrigerated (7-8° C.)) turned out to be 665 mM2; in data set [4] (room temperature (24-25° C.)) it was 2236 mM2. Moreover, in data set [5], the “Degradation of the drug during jet milling micronization” value is listed as “no detectable degradation”. Moreover, in data set [6] (at 10^-4 M), the “Solubility under the assay conditions” value is reported as “highly limited”. Moreover, in data set [6] (compound 48/80 0.1 μg/ml, 2 min at 37° C., read-out: EC50, inhibition of histamine release), the EC50 came to 0.17 µM.

On to `Nc1nc(=O)c2c([nH]1)NCC(CNc1ccc(C(=O)N[C@@H](CCC(=O)O)C(=O)O)cc1)N2C=O` (mixture of isomers) [Folinic Acid, Folinic acid], for which the “Effect on steroid-mediated adenosine depletion” value in data set [7] (coadministration with DHEA or methyltestosterone) was “completely abrogated steroid-mediated adenosine depletion”. Also, the “Effect on adenosine levels” value in data set [7] (rat, in vivo) was “increase in adenosine levels for all organs studied”.

The values are drawn from patent US20050090454A1, “Combination of dehydroepiandrosterone or dehydroepiandrosterone-sulfate with an antihistamine for treatment of asthma or chronic obstructive pulmonary disease” (priority 2003, published 2005).
